Data: patent publication US8501936B2 (priority 2009, dated 2013)
pIC50: −log10 of the molar value.

Legend:
human JAK2 = human JAK2 (Homo sapiens (Human), UniProt O60674); details: read-out: JAK2 IC50
human FAK = human FAK (Homo sapiens (Human), UniProt Q05397); details: read-out: FAK IC50
Chain of human FAK (Q05397 whole entry): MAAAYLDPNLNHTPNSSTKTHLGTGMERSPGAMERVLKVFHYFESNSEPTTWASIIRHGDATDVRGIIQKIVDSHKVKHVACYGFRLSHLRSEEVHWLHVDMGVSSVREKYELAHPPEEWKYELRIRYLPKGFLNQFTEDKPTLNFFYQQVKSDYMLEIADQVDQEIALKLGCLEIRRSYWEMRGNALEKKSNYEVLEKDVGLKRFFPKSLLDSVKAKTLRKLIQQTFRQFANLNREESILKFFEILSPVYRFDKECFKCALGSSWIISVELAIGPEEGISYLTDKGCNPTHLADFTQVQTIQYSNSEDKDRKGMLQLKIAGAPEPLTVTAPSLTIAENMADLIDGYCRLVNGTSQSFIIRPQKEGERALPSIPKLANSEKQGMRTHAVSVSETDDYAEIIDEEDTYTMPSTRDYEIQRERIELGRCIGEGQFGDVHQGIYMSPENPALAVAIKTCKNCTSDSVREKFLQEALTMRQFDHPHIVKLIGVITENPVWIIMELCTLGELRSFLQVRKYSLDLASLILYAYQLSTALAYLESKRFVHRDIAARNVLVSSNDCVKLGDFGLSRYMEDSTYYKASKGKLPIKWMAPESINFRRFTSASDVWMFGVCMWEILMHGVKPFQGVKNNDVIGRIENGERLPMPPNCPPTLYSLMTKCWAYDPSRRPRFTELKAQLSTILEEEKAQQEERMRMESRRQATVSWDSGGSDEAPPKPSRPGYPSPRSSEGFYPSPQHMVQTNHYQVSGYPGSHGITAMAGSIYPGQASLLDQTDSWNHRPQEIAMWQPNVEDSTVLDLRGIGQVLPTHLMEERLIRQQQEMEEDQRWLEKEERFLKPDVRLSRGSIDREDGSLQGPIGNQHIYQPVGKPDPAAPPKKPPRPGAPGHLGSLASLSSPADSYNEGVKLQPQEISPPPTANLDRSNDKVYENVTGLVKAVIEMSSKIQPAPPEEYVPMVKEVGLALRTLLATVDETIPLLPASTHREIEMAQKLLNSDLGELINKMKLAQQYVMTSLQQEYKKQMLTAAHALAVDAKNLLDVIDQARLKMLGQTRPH

Chain of human JAK2 (O60674 815-1132): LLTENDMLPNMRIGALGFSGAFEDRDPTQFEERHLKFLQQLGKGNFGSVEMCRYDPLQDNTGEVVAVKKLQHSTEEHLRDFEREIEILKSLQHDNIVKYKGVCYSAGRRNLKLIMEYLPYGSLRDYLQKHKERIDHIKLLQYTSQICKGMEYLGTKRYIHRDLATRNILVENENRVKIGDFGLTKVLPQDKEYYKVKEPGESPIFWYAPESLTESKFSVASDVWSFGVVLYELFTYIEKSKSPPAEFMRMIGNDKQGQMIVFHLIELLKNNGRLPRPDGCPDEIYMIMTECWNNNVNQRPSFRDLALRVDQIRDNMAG

Compound	pIC50 (human JAK2)	pIC50 (human FAK)
CN1CCN(c2cccc(Nc3nc4c(NCc5ccccc5S(C)(=O)=O)cccn4n3)c2)CC1 [Example 139, N(8)-(2-Methanesulfonyl-benzyl)-N(2)-[3-(4-methyl-piperazin-1-yl)-phenyl]-[1,2,4]triazolo[1,5-a]pyridine-2,8-diamine]	7.58	6.70
CN1CCC(c2ccc(Nc3nc4c(NCc5ccccc5S(C)(=O)=O)cccn4n3)cc2)CC1 [Example 140, N(8)-(2-Methanesulfonyl-benzyl)-N(2)-[4-(1-methyl-piperidin-4-yl)-phenyl]-[1,2,4]triazolo[1,5-a]pyridine-2,8-diamine]	7.65	6.91
CS(=O)(=O)c1ccccc1CNc1cccn2nc(Nc3ccc(OCCN4CCCC4)cc3)nc12 [Example 141, N(8)-(2-Methanesulfonyl-benzyl)-N(2)-[4-(2-pyrrolidin-1-yl-ethoxy)-phenyl]-[1,2,4]triazolo[1,5-a]pyridine-2,8-diamine]	7.82	7.01
C[C@H](O)CN1CCN(c2cccc(Nc3nc4c(-c5ccc(S(C)(=O)=O)cc5)cccn4n3)c2)CC1 [Example 142, (S)-1-(4-{3-[8-(4-Methanesulfonyl-phenyl)-[1,2,4]triazolo[1,5-a]pyridin-2-ylamino]-phenyl}-piperazin-1-yl)-propan-2-ol]	9.12	6.03
C[C@@H](O)CN1CCN(c2cccc(Nc3nc4c(-c5ccc(S(C)(=O)=O)cc5)cccn4n3)c2)CC1 [Example 143, (R)-1-(4-{3-[8-(4-Methanesulfonyl-phenyl)-[1,2,4]triazolo[1,5-a]pyridin-2-ylamino]-phenyl}-piperazin-1-yl)-propan-2-ol]	8.95	5.70
CC(C)(O)CN1CCN(c2cccc(Nc3nc4c(-c5ccc(S(C)(=O)=O)cc5)cccn4n3)c2)CC1 [Example 144, 1-(4-{3-[8-(4-Methanesulfonyl-phenyl)-[1,2,4]triazolo[1,5-a]pyridin-2-ylamino]-phenyl}-piperazin-1-yl)-2-methyl-propan-2-ol]	8.58	5.69
CS(=O)(=O)c1ccc(-c2cccn3nc(Nc4ccc5c(c4)CCC(N4CCOCC4)CC5)nc23)cc1 (stereo not shown) [Example 145, [8-(4-Methanesulfonyl-phenyl)-[1,2,4]triazolo[1,5-a]pyridin-2-yl]-(7-morpholin-4-yl-6,7,8,9-tetrahydro-5H-benzocyclohepten-2-yl)-amine]	8.81	6.17
CN1CCN(c2ccc(Nc3nc4c(NCc5ccccc5N(C)S(C)(=O)=O)cccn4n3)cc2)CC1 [Example 147, N-Methyl-N-[2-({2-[4-(4-methyl-piperazin-1-yl)-phenylamino]-[1,2,4]triazolo[1,5-a]pyridin-8-ylamino}-methyl)-phenyl]-methanesulfonamide]	7.54	7.94
CN1CCC(c2ccc(Nc3nc4c(NCc5ccccc5N(C)S(C)(=O)=O)cccn4n3)cc2)CC1 [Example 149, N-Methyl-N-[2-({2-[4-(1-methyl-piperidin-4-yl)-phenylamino]-[1,2,4]triazolo[1,5-a]pyridin-8-ylamino}-methyl)-phenyl]-methanesulfonamide]	7.41	7.87
CN(c1ccccc1CNc1cccn2nc(Nc3ccc(OCCN4CCCC4)cc3)nc12)S(C)(=O)=O [Example 150, N-Methyl-N-[2-({2-[4-(2-pyrrolidin-1-yl-ethoxy)-phenylamino]-[1,2,4]triazolo[1,5-a]pyridin-8-ylamino}-methyl)-phenyl]-methanesulfonamide]	7.36	7.89
CN1CCN(c2ccc(Nc3nc4c(NCc5cccnc5)cccn4n3)cc2)CC1 [Example 151, N(2)-[4-(4-Methyl-piperazin-1-yl)-phenyl]-N(8)-pyridin-3-ylmethyl-[1,2,4]triazolo[1,5-a]pyridine-2,8-diamine]	6.31	5.19
CS(=O)(=O)c1ccc(-c2cccn3nc(Nc4cccc(N5CCN(CCO)CC5)c4)nc23)cc1 [Example 152, 2-(4-{3-[8-(4-Methanesulfonyl-phenyl)-[1,2,4]triazolo[1,5-a]pyridin-2-ylamino]-phenyl}-piperazin-1-yl)-ethanol]	8.63	6.00
CN1CCN(c2cccc(Nc3nc4c(NCc5cccnc5)cccn4n3)c2)CC1 [Example 153, N(2)-[3-(4-Methyl-piperazin-1-yl)-phenyl]-N(8)-pyridin-3-ylmethyl-[1,2,4]triazolo[1,5-a]pyridine-2,8-diamine]	6.19	5.19
c1cncc(CNc2cccn3nc(Nc4ccc(OCCN5CCCC5)cc4)nc23)c1 [Example 154, N(8)-Pyridin-3-ylmethyl-N(2)-[4-(2-pyrrolidin-1-yl-ethoxy)-phenyl]-[1,2,4]triazolo[1,5-a]pyridine-2,8-diamine]	6.24	5.00
CN(c1ncccc1CNc1cccn2nc(Nc3ccc(N4CCN(CCO)CC4)cc3)nc12)S(C)(=O)=O [Example 155, N-{3-[(2-{4-[4-(2-Hydroxy-ethyl)-piperazin-1-yl]-phenylamino}-[1,2,4]triazolo[1,5-a]pyridin-8-ylamino)-methyl]-pyridin-2-yl}-N-methyl-methanesulfonamide]	7.44	6.42
CN1CCN(c2ccc(Nc3nc4c(NCc5ccccc5CN(C)S(C)(=O)=O)cccn4n3)cc2)CC1 [Example 156, N-Methyl-N-[2-({2-[4-(4-methyl-piperazin-1-yl)-phenylamino]-[1,2,4]triazolo[1,5-a]pyridin-8-ylamino}-methyl)-benzyl]-methanesulfonamide]	7.45	6.75
CN1CCN(c2cccc(Nc3nc4c(NCc5ccccc5CN(C)S(C)(=O)=O)cccn4n3)c2)CC1 [Example 157, N-Methyl-N-[2-({2-[3-(4-methyl-piperazin-1-yl)-phenylamino]-[1,2,4]triazolo[1,5-a]pyridin-8-ylamino}-methyl)-benzyl]-methanesulfonamide]	6.66	6.52
CN(Cc1ccccc1CNc1cccn2nc(Nc3ccc(OCCN4CCCC4)cc3)nc12)S(C)(=O)=O [Example 158, N-Methyl-N-[2-({2-[4-(2-pyrrolidin-1-yl-ethoxy)-phenylamino]-[1,2,4]triazolo[1,5-a]pyridin-8-ylamino}-methyl)-benzyl]-methanesulfonamide]	7.01	6.56
CN1CCN(c2ccc(Nc3nc4c(NCc5cccc(S(C)(=O)=O)c5)cccn4n3)cc2)CC1 [Example 160, N(8)-(3-Methanesulfonyl-benzyl)-N(2)-[4-(4-methyl-piperazin-1-yl)-phenyl]-[1,2,4]triazolo[1,5-a]pyridine-2,8-diamine]	6.58	5.00
CN1CCN(c2cccc(Nc3nc4c(NCc5cccc(S(C)(=O)=O)c5)cccn4n3)c2)CC1 [Example 161, N(8)-(3-Methanesulfonyl-benzyl)-N(2)-[3-(4-methyl-piperazin-1-yl)-phenyl]-[1,2,4]triazolo[1,5-a]pyridine-2,8-diamine]	6.40	5.00
CN1CCC(c2ccc(Nc3nc4c(NCc5cccc(S(C)(=O)=O)c5)cccn4n3)cc2)CC1 [Example 162, N(8)-(3-Methanesulfonyl-benzyl)-N(2)-[4-(1-methyl-piperidin-4-yl)-phenyl]-[1,2,4]triazolo[1,5-a]pyridine-2,8-diamine]	6.48	5.00
CN1CCN(c2ccc(Nc3nc4c(NCC5CCN(C(=O)OC(C)(C)C)C5)cccn4n3)cc2)CC1 (stereo not shown) [Example 163, 3-({2-[4-(4-Methyl-piperazin-1-yl)-phenylamino]-[1,2,4]triazolo[1,5-a]pyridin-8-ylamino}-methyl)-pyrrolidine-1-carboxylic acid tert-butyl ester]	7.01	5.00
CN1CCN(c2ccc(Nc3nc4c(Nc5ccccc5CS(C)(=O)=O)cccn4n3)cc2)CC1 [Example 164, N(8)-(2-Methanesulfonylmethyl-phenyl)-N(2)-[4-(4-methyl-piperazin-1-yl)-phenyl]-[1,2,4]triazolo[1,5-a]pyridine-2,8-diamine]	7.66	5.89
CN1CCC(c2ccc(Nc3nc4c(Nc5ccccc5CS(C)(=O)=O)cccn4n3)cc2)CC1 [Example 165, N(8)-(2-Methanesulfonylmethyl-phenyl)-N(2)-[4-(1-methyl-piperidin-4-yl)-phenyl]-[1,2,4]triazolo[1,5-a]pyridine-2,8-diamine]	7.40	5.70
CN1Cc2ccc(Nc3nc4c(NCc5cccnc5N(C)S(C)(=O)=O)cccn4n3)cc2C1 [Example 166, N-Methyl-N-(3-{[2-(2-methyl-2,3-dihydro-1H-isoindol-5-ylamino)-[1,2,4]triazolo[1,5-a]pyridin-8-ylamino]-methyl}-pyridin-2-yl)-methanesulfonamide]	7.89	7.32
CN1Cc2ccc(Nc3nc4c(NCc5ccccc5N(C)S(C)(=O)=O)cccn4n3)cc2C1 [Example 167, N-Methyl-N-(2-{[2-(2-methyl-2,3-dihydro-1H-isoindol-5-ylamino)-[1,2,4]triazolo[1,5-a]pyridin-8-ylamino]-methyl}-phenyl)-methanesulfonamide]	8.04	7.75
CN1Cc2ccc(Nc3nc4c(-c5ccc(S(C)(=O)=O)cc5)cccn4n3)cc2C1 [Example 168, [8-(4-Methanesulfonyl-phenyl)-[1,2,4]triazolo[1,5-a]pyridin-2-yl]-(2-methyl-2,3-dihydro-1H-isoindol-5-yl)-amine]	9.14	6.09
CN1CCN(c2ccc(Nc3nc4c(NCc5cccc(N(C)S(C)(=O)=O)c5)cccn4n3)cc2)CC1 [Example 169, N-Methyl-N-[3-({2-[4-(4-methyl-piperazin-1-yl)-phenylamino]-[1,2,4]triazolo[1,5-a]pyridin-8-ylamino}-methyl)-phenyl]-methanesulfonamide]	6.84	5.19
CN1CCN(c2ccc(Nc3nc4c(Nc5ccccc5CN(C)S(C)(=O)=O)cccn4n3)cc2)CC1 [Example 171, N-Methyl-N-(2-{2-[4-(4-methyl-piperazin-1-yl)-phenylamino]-[1,2,4]triazolo[1,5-a]pyridin-8-ylamino}-benzyl)-methanesulfonamide]	7.15	6.00
